Experimental data reported in patent US20160271100A1, “METHOD FOR TREATING TUMORS AND RADIOTHERAPY- AND CHEMOTHERAPY-[…] OR EMOTIONAL […] CANNABINOIDS” (GLIA LLC, priority 2014, published 2016).

Assays:
[1] = tested on: glioblastoma tumor; details: one human study; cited from earlier work
[2] = tested on: glioblastoma; assay: Course of glioblastoma (MRI/PET) under chemotherapy with or without topical dronabinol (same patient); assay type: in vivo, human; details: for adverse effects that led to discontinuation of chemotherapy: patient with glioblastoma
Procedure: By way of reminder, the patient described in the two examples set forth above was diagnosed with glioblastoma in February 2010. Approximately 95% of the tumor was surgically removed within 3 days of diagnosis. Following the surgery, the patient was treated with radiation, as well as by chemotherapy with a combination of temozolamide, topotecan, and bevacizumab. […] In May of 2011, the combination therapy was discontinued and the patient received only maintenance bevacizumab. MRI scans were performed every two months to monitor any changes in the brain.
The patient resumed chemotherapy with a combination of temozolamide, etoposide, and bevacizumab. […] The chemotherapy regimen was changed to carboplatin, irinotecan, together with bevacizumab.
As mentioned above, the patient was treated with 2.5 mg topical dronabinol beginning in December 2012 and continuing to the present.
On Mar. 19, 2014, a further increase in size of the tumor was noted. The secondary tumor was unchanged.
In early April 2014, the patient was again treated with temozolamide and bevacizumab.

[3] = tested on: chemo brain and brain fog (chemotherapy-associated cognitive or emotional impairment); assay: Daily low-dose topical dronabinol for chemo brain and brain fog induced by long term chemotherapy and radiation (single patient); details: 2.5 mg daily applied to forehead
Procedure: A person was diagnosed with glioblastoma in February 2010 and underwent immediate surgery to remove the tumor. Within 6 weeks of the surgery, they began radiotherapy and chemotherapy with a combination of temozolamide, topotecan, and bevacizumab.
Beginning in December of 2012 and continuing through March of 2014, the patient, who was not undergoing any chemotherapy at this time, was treated daily with 2.5 mg of dronabinol applied to their forehead. Daily evaluation by their caretaker and quarterly evaluations by a medical institution were documented during this treatment period.

[4] = tested on: chemo brain and brain fog; assay: Low dose topical dronabinol for chemo brain and brain fog induced by short-term chemotherapy (same patient)
Procedure: The patient was treated again with temozolamide, and bevacizumab.
Each morning, the patient was treated with dronabinol as described in Example 1 supra.

CCCCCc1cc(O)c2c(c1)OC(C)(C)[C@@H]1CCC(C)=C[C@@H]21 [THC, tetrahydrocannabinol]
benefit of THC instilled into a glioblastoma tumor [1]: failed to demonstrate a clear-cut benefit

Bevacizumab: chemotherapy agent
adverse effects that led to discontinuation of chemotherapy [2]: hypertension and proteinuria

CCCCCc1cc(O)c2c(c1)OC(C)(C)[C@@H]1CCC(C)=C[C@@H]21 [dronabinol, (6aR,10aR)-6a,7,8,10a-tetrahydro-6,6,9-trimethyl-3-pentyl-6H-dibenzo[b,d]-pyran-1-ol]
cognitive functions, emotional skills, and social interaction skills ([3]; December 2012 to March 2014): showed daily and long term improvement
hallucinatory or adverse cognitive effects ([3]; December 2012 to March 2014): no hallucinatory or adverse cognitive effects were observed
time to signs of improved recognition, memory, and social interaction after initiation of treatment ([3]; patient not on chemotherapy): 1 to 2 days
tumor response by MRI, chemotherapy co-administered with topical dronabinol ([2]; 2.5 mg topical dronabinol continued with temozolamide and bevacizumab, MRI 6 weeks after initiation of chemotherapy): shrinkage of both the primary tumor that had regrown into the extirpated space and the secondary tumor
primary tumor by MRI, topical dronabinol without chemotherapy ([2]; 2.5 mg topical dronabinol, MRI December 6, 2013 and Mar. 19, 2014): increase in size of the primary tumor
secondary tumor by MRI, topical dronabinol without chemotherapy ([2]; 2.5 mg topical dronabinol, Mar. 19, 2014): unchanged
hallucinatory or adverse cognitive effects ([4]; 2.5 mg topical each morning during chemotherapy): no hallucinatory or adverse cognitive effects were observed
time to significant diminishment of brain fog after each dose ([4]; 2.5 mg topical each morning during temozolamide and bevacizumab chemotherapy): ≤ 45 min
duration of the effects of administration ([4]; 2.5 mg topical each morning, six-week period): lasted until the following morning

O=NN(CCCl)C(=O)NC1CCCCC1 [lomustine]
adverse effects that led to discontinuation of chemotherapy [2]: hypertension and proteinuria
